{"source": "patent EP1064944A1", "about": "“Protein kinase N inhibitor comprising Fasudil” (priority 1999, dated 2001)", "key": {"ROCK": {"target": "ROCK (Homo sapiens, UniProt Q13464)", "sequence (Q13464 whole entry)": "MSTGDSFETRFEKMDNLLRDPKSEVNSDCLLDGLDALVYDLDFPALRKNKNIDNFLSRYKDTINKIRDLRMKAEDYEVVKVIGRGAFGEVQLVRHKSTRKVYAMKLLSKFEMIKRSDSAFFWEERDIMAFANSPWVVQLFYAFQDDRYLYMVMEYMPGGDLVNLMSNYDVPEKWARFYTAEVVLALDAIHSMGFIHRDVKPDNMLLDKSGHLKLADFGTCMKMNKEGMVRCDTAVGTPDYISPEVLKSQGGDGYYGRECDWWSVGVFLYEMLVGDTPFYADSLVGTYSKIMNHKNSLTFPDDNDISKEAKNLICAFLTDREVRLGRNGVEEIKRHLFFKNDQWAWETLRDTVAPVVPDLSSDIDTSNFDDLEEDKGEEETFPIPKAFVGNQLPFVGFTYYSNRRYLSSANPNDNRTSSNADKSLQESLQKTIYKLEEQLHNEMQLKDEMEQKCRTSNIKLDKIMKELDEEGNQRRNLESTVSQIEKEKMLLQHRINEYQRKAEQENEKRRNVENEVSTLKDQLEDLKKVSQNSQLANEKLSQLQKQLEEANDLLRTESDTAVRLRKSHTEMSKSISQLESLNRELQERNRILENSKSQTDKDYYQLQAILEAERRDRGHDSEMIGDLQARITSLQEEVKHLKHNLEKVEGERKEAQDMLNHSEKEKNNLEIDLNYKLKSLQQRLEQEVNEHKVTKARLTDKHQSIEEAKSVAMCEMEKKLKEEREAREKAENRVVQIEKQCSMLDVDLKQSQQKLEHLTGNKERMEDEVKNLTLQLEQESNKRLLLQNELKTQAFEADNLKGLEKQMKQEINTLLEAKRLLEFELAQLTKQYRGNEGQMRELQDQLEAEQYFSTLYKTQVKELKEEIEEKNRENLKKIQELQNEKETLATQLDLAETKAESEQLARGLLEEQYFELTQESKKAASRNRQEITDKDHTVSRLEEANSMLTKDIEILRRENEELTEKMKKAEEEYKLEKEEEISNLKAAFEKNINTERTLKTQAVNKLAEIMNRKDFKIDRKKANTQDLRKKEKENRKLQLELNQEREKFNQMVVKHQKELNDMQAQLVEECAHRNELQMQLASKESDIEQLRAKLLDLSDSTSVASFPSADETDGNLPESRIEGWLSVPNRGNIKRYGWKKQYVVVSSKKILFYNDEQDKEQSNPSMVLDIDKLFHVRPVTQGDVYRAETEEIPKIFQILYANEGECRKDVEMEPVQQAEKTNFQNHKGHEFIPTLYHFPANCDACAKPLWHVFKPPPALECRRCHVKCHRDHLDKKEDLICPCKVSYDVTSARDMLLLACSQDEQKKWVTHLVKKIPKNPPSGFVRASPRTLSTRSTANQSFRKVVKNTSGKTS", "assay": "ROCK inhibition (from Table 1 of Nature vol. 389, p. 991)", "assay_type": "biochemical", "conditions": "based on the Ki values of Table 1 of Nature vol. 389, p. 991", "excerpt": "According to Table 1 of Nature vol. […] 389, p. 991/30 October 1997 based on the Ki values."}, "[1]": {"tested_on": "Rat MM-1 Ascites Hepatoma cells bearing V14 Rho A", "assay": "Peritoneal invasion of Rat MM-1 ascites hepatoma cells bearing V14 Rho A (carcinomatous peritonitis model)", "assay_type": "in vivo, male Donryu rats", "conditions": "after 11 days, 5 rats", "description": "MMI ascites hepatoma cells (2x10^7) stably expressing Val 14-RhoA were injected into the peritoneal cavities of male Donryu rats (body weight 100g) (to obtain a model of rat having MM-1 ascites Hepatoma cells bearing V14 Rho A). Fasudil was intravenously delivered at the indicated dose (0, 0.1 mg/Kg, 1 mg/Kg, and 10 mg/Kg) 3 times per day. After 11 days, the animals were sacrificed and (i) tumor nodules and tumor cell dissemination on peritoneum were assessed (This test was conducted by the method which is similar to one described in Nature Medicine Volume 5, Number 2, February 1999, p.223-225 and was conducted with 5 rats at each dose.). In addition, hyperemia of the surface in the peritoneum was also observed."}, "[2]": {"target": "human-recombinant protein kinase N (Homo sapiens, UniProt Q16512)", "sequence (Q16512 whole entry)": "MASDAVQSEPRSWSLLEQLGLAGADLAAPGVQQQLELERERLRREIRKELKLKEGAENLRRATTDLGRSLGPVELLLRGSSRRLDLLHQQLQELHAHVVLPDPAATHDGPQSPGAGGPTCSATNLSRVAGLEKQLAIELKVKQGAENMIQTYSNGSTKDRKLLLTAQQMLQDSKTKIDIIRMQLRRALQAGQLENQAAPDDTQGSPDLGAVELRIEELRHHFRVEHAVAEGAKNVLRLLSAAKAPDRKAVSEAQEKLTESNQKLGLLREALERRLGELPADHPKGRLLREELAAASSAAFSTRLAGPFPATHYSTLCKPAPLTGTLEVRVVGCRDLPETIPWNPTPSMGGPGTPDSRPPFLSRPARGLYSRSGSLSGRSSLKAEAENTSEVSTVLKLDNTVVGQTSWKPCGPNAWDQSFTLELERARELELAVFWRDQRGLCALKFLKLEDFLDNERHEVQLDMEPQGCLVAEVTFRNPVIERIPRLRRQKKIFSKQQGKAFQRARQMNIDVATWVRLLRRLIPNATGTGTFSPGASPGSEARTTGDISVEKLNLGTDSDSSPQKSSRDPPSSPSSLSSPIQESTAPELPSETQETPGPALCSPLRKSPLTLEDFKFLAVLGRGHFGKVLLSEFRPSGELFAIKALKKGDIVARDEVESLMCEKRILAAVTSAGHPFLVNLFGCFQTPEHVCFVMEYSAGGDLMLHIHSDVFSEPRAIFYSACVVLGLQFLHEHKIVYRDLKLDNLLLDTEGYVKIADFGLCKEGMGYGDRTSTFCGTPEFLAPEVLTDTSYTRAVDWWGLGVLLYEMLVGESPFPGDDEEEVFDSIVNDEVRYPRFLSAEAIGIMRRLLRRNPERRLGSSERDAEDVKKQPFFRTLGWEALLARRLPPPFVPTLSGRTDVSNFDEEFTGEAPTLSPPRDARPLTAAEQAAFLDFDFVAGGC", "sequence (P61586 whole entry partner)": "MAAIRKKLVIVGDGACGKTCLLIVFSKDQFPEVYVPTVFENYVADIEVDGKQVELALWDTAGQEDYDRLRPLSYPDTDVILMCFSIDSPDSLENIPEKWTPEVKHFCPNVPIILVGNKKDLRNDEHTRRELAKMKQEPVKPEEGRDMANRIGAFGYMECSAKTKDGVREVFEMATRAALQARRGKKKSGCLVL", "assay": "Measurement of inhibition activity of protein kinase N (PKN)", "assay_type": "biochemical", "description": "The PKN reaction was carried out in 50 µl reaction buffer (20mM Tris HCI pH 7.5, 8mM MgCl2) containing (i) 40µM PKCα peptide ([…]) as a substrate of PKN, (ii) 1 µM GTPγS form GST-RhoA (prepared by the method of Method in ENZYMOLOGY Vol. 256 Small GTPases and Their Regulators Part B Rho Family P.3-10), (iii) 50µM, 20µM, 10µM and 5µM (as the final concentration of the reaction mixture) of ATP and 0.5µl of [γ-^32P] ATP (1.11 TBg/mmol, 74MBg/ml; supplied by NEN™ Life Science Product, Inc.), and (iv) a purified human-recombinant protein kinase N (prepared by using a Baculovirus expression system), in the presence of or in the absence of 1 µM of hexahydro-1-(5-isoquinolinesulfonyl)-1H-1,4-diazepine hydrochloride (Fasudil Hydrochloride). 30µl of the reaction mixture was spotted onto Whatman paper P81 (supplied by Whatman International Ltd.) after the incubation for 10 minutes at 30°C. After the spotting, the spotted Whatman paper was washed with 75mM phosphoric acid 5 times. Then incorporation of ^32P into the PKCα peptide on the washed paper was assessed by scintillation counting. Based on the assessment by scintillation counting, Km value was measured by Lineweaver-Burk plot (method), then K, value was calculated."}, "[3]": {"conditions": "0.1 mg/Kg intravenously 3 times per day"}, "[4]": {"conditions": "1 mg/Kg intravenously 3 times per day"}, "[5]": {"conditions": "10 mg/Kg intravenously 3 times per day"}}, "note": "pKi: −log10 of the molar value.", "data": [{"smiles": "Cl.O=S(=O)(c1cccc2cnccc12)N1CCCNCC1", "note": "[Fasudil Hydrochloride, hexahydro-1-(5-isoquinolinesulfonyl)-1H-1,4-diazepine hydrochloride]", "values": [{"measurement": "ROCK inhibitory activity relative to the inhibitory activity of protein kinase C", "setting": "ROCK", "value": 28, "unit": "times"}, {"measurement": "Hyperemia of the surface in the peritoneum", "setting": "[1]; [3]", "value": "+ (25-50% of surface in the peritoneum shows hyperemia)"}, {"measurement": "Total number of tumor nodules on peritoneum", "setting": "[1]; [3]", "value": 22}, {"measurement": "Hyperemia of the surface in the peritoneum", "setting": "[1]; [4]", "value": "± (less than 25% of surface in the peritoneum shows hyperemia)"}, {"measurement": "Total number of tumor nodules on peritoneum", "setting": "[1]; [4]", "value": 11}, {"measurement": "Hyperemia of the surface in the peritoneum", "setting": "[1]; [5]", "value": "± (less than 25% of surface in the peritoneum shows hyperemia)"}, {"measurement": "Total number of tumor nodules on peritoneum", "setting": "[1]; [5]", "value": 0}, {"measurement": "pKi", "setting": "[2]; 1 µM Fasudil Hydrochloride, ATP 50, 20, 10 and 5 µM, Lineweaver-Burk plot, 10 minutes at 30°C", "value": 6.04}, {"measurement": "PKN inhibitory activity relative to the inhibitory activity of protein kinase C", "setting": "[2]; based on the Ki values, protein kinase C Ki from Table 1 of Nature vol. 389, p. 991", "value": "ten times higher"}]}]}
